Measurements published in PubChem BioAssay AID1963441 (Molecular Pharmacology Branch, DTP, NCI, 2024).
pIC50: −log10 of the molar value.

System: NCI-H1876 complex spheroid growth, % test/control
Experiment: Anticancer human tumor NCI-H1876 cell line growth inhibition [Asc];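 further: compound exposure lasted 7 days starting three days after seeding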;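 on viability, T/C: 100% = DMSO vehicle control wells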
Conditions: for pIC50: curve of first compound; for viability, T/C: stronger effect = lower value
Procedure, shortened: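 Tumor cells were grown as complex spheroids with human endothelial cells (HUVEC) and human mesenchymal stem cells as stroma. Agents were tested alone and in combination, in half-log steps down from the clinical Cmax, or from 10 microM where Cmax was unknown.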

In the case of `O=C(c1cc(Cc2n[nH]c(=O)c3ccccc23)ccc1F)N1CCN(C(=O)C2CC2)CC1` + CNC(C)C(=O)NC1CN(S(=O)(=O)c2cccc(S(=O)(=O)N3CCC4CCC(C(=O)NC(c5ccccc5)c5ccccc5)N4C(=O)C(NC(=O)C(C)NC)C3)c2)CCC2CCC(C(=O)NC(c3ccccc3)c3ccccc3)N2C1=O, the pIC50 (second compound 0.00316 µM) was 5.33, the pIC50 (second compound 0.01 µM) was less than 5.00 and the pIC50 (second compound 0.0316 µM) was less than 5.00. For the same compound, the pIC50 (second compound 0.1 µM) was less than 5.00, the pIC50 (second compound 0.316 µM) was less than 5.00 and the pIC50 (second compound 1 µM) was less than 5.00. The viability, T/C (second compound 0.00316 µM, first compound 0.0316 µM) was 67%, the viability, T/C (second compound 0.00316 µM, first compound 0.1 µM) was 61.7% and the viability, T/C (second compound 0.00316 µM, first compound 0.316 µM) was 65.1%. The viability, T/C (second compound 0.00316 µM, first compound 1 µM) was 66.5%, the viability, T/C (second compound 0.00316 µM, first compound 3.16 µM) was 60.6% and the viability, T/C (second compound 0.00316 µM, first compound 10 µM) was 29.6%. For the same compound, the viability, T/C (second compound 0.01 µM, first compound 0.0316 µM) was 96%, the viability, T/C (second compound 0.01 µM, first compound 0.1 µM) was 93% and the viability, T/C (second compound 0.01 µM, first compound 0.316 µM) was 105%. It also gave a viability, T/C (second compound 0.01 µM, first compound 1 µM) of 101%, a viability, T/C (second compound 0.01 µM, first compound 3.16 µM) of 96.5% and a viability, T/C (second compound 0.01 µM, first compound 10 µM) of 66.3%. For the same compound, the viability, T/C (second compound 0.0316 µM, first compound 0.0316 µM) was 98.5%, the viability, T/C (second compound 0.0316 µM, first compound 0.1 µM) was 93.7% and the viability, T/C (second compound 0.0316 µM, first compound 0.316 µM) was 92%. For the same compound, the viability, T/C (second compound 0.0316 µM, first compound 1 µM) was 99.9%, the viability, T/C (second compound 0.0316 µM, first compound 3.16 µM) was 97.8% and the viability, T/C (second compound 0.0316 µM, first compound 10 µM) was 69.8%. It also gave a viability, T/C (second compound 0.1 µM, first compound 0.0316 µM) of 89.5%, a viability, T/C (second compound 0.1 µM, first compound 0.1 µM) of 97.6% and a viability, T/C (second compound 0.1 µM, first compound 0.316 µM) of 103%. It also gave a viability, T/C (second compound 0.1 µM, first compound 1 µM) of 105%, a viability, T/C (second compound 0.1 µM, first compound 3.16 µM) of 95.6% and a viability, T/C (second compound 0.1 µM, first compound 10 µM) of 62.4%. The viability, T/C (second compound 0.316 µM, first compound 0.0316 µM) was 94.2%, the viability, T/C (second compound 0.316 µM, first compound 0.1 µM) was 99.9% and the viability, T/C (second compound 0.316 µM, first compound 0.316 µM) was 116%. It also gave a viability, T/C (second compound 0.316 µM, first compound 1 µM) of 111%, a viability, T/C (second compound 0.316 µM, first compound 3.16 µM) of 104% and a viability, T/C (second compound 0.316 µM, first compound 10 µM) of 66.7%. The viability, T/C (second compound 1 µM, first compound 0.0316 µM) was 101%, the viability, T/C (second compound 1 µM, first compound 0.1 µM) was 91.2% and the viability, T/C (second compound 1 µM, first compound 0.316 µM) was 97%. It also gave a viability, T/C (second compound 1 µM, first compound 1 µM) of 104%, a viability, T/C (second compound 1 µM, first compound 3.16 µM) of 101% and a viability, T/C (second compound 1 µM, first compound 10 µM) of 56.6%.
